Reference: patent US20090018194A1, “Use of antimicrobial agents derived from alliaceous plants for the prevention and control of crop diseases, post-harvest rot and as environmental disinifectant products” (DMC Research Center, S.L., priority 2007, published 2009)

Columns and labels:
[1] = tested on: Micrococcus luteus ATCC 15307; test: agar diffusion test with impregnated cellulose discs; assay type: cell-based; details: incl. 6 mm disc
Botrytis cinerea = test: field control of Botrytis in strawberries, foliar spraying; assay type: in vivo; details: after 12 days
[2] = tested on: Escherichia coli CECT 515; test: agar diffusion test with impregnated cellulose discs; assay type: cell-based; details: incl. 6 mm disc
[3] = tested on: Candida krusei ATCC 34135; test: as above; assay type: cell-based; details: incl. 6 mm disc
[4] = tested on: Listeria monocytogenes CECT 4032; test: as above; assay type: cell-based; details: incl. 6 mm disc
[5] = tested on: Penicillium sp. (CPC-PT-1); test: agar diffusion test, wild fungi isolated from crown rot in bananas; assay type: cell-based; details: incl. 6 mm disc
FUNGI = test: environmental disinfection of banana storage and ripening rooms by fogging, air sampling; details: fogging of 1500 ppm solution; for MICROBE COUNTS FUNGI CFU/dish: 80 liters collected/dish; for % REDUCTION OF ENVIRONMENTAL MICROBIOTA Fungal population: after vs before treatment
Protocol: A study was conducted to verify the environmental disinfecting capability of the compound PTS in rooms of a fruit and vegetable processing plant, in particular one that handled bananas. For test purposes, three separate rooms of the central were sampled, and the environmental quality was studied before and after the treatment with PTS. First, an environmental sample was taken in each room prior to the treatment, using an […]-Omega air sampling device manufactured by LCB, by suctioning a volume of air set at 80 L which impacted over the different cultivation media selected. The samples were taken in duplicate in the areas to be analyzed. PCA agar medium was used to count the total mesophilic aerobes, and the medium Rose Bengal agar was used to count the fungi. The environmental disinfectant treatment comprised fogging of a 1500 ppm solution of PTS. 5 liters of this solution were fogged for each 1000 m^3 of the room. […] Several hours after the fogging, the sampling operation was repeated in the different rooms that had been treated as described above. […] Once the incubation time had elapsed, the readings were taken by counting the microorganisms that appeared in each type of dish, expressed as cfu/dish.

[6] = tested on: Penicillium digitatum Supplied by Brogdex SA; test: agar diffusion test, wild phytopathogens isolated from citrus rot; assay type: cell-based; details: incl. 6 mm disc
Geotrichum candidum = test: post-harvest rotting of inoculated oranges (Navelina), immersion treatment; assay type: in vivo
Protocol: (§1) This example considers the effectiveness of the active natural principles PTS and PTSO in two different doses for the control of post-harvest rotting of oranges ([…] variety), caused by controlled artificial inoculation with the fungi Penicillium digitatum, Penicillium expansum, Phytophthora citrophthora and Geotrichum candidum, the principal pathogens of this fruit. The inoculation of the oranges was carried out with suspensions of spores of the different wild fungal strains selected, according to the methodology described below. The first step was the isolation and identification of the fungal strains used in the study. The strains of filamentous fungi used in these tests (Penicillium digitatum, Penicillium italicum and Phytophthora citrophthora) were isolated from oranges affected by rot. In these isolation processes, it was not possible to detect any strain belonging to Geotrichum candidum, as a result of which it was necessary to obtain the latter substance from the Spanish Collection of Standard Cultures, where it is identified by reference CECT 1102. […] To promote the implantation of the inoculum of Geotrichum candidum, 200 ppm of cyclohexamide was added to the inoculum prior to its inoculation. […] The assessment of the effectiveness of PTS and PTSO comprised counting of the number of fruits affected by rot in the inoculated zone, to determine the percentage of fruit affected for each treatment and fungus inoculated, and expressing this effectiveness as a percentage of reduction of the affected fruit.

[7] = tested on: Phytophthora citrophthora; test: as above; assay type: in vivo
Protocol: as §1

[8] = tested on: Candida parapsilosis CCTM 1038; test: agar diffusion test with impregnated cellulose discs; assay type: cell-based; details: incl. 6 mm disc
[9] = tested on: Phytophthora citrophthora CECT 2353; test: agar diffusion test, wild phytopathogens isolated from citrus rot; assay type: cell-based; details: incl. 6 mm disc
[10] = tested on: Penicillium italicum CECT 2294; test: agar diffusion test with impregnated cellulose discs; assay type: cell-based; details: incl. 6 mm disc
[11] = tested on: Saccharomyces cerevisiae CECT 1324; test: as above; assay type: cell-based; details: incl. 6 mm disc
[12] = tested on: Penicillium sp. (CPC-PT-3); test: agar diffusion test, wild fungi isolated from crown rot in bananas; assay type: cell-based; details: incl. 6 mm disc
[13] = Zone 1 of the ripening room after treatment
[14] = Zone 2 of the ripening room after treatment
[15] = 1600 ppm, 4 days of treatment at 20° C.
[16] = 1600 ppm, 7 days of treatment at 20° C.
[17] = 2500 ppm, 4 days of treatment at 20° C.
[18] = 2500 ppm, 7 days of treatment at 20° C.

CCCS[S+]([O-])CCC (stereo not drawn) [PTS, Propyl Propyl Thiosulfinate]
diameter of the microbial inhibition halo ([1]; 25 ppm): 19 mm
diameter of the microbial inhibition halo ([1]; 50 ppm): 25 mm
diameter of the microbial inhibition halo ([1]; 100 ppm): 32 mm
% of fruit affected (Botrytis cinerea; 2000 ppm): 3.8%
No. of fruits affected (Botrytis cinerea; 2000 ppm, 150 fruits): 6
% of fruit affected (Botrytis cinerea; 2400 ppm): 3.1%
No. of fruits affected (Botrytis cinerea; 2400 ppm, 148 fruits): 5
% of fruit affected (Botrytis cinerea; 4800 ppm): 3.1%
No. of fruits affected (Botrytis cinerea; 4800 ppm, 141 fruits): 4
% of fruit affected (Botrytis cinerea; 9600 ppm): 2%
No. of fruits affected (Botrytis cinerea; 9600 ppm, 114 fruits): 2
diameter of the microbial inhibition halo ([2]; 25 ppm): 14 mm
diameter of the microbial inhibition halo ([2]; 50 ppm): 17 mm
diameter of the microbial inhibition halo ([2]; 100 ppm): 21 mm
diameter of the microbial inhibition halo ([3]; 25 ppm): 14 mm
diameter of the microbial inhibition halo ([3]; 50 ppm): 18 mm
diameter of the microbial inhibition halo ([3]; 100 ppm): 29 mm
diameter of the microbial inhibition halo ([4]; 25 ppm): 18 mm
diameter of the microbial inhibition halo ([4]; 50 ppm): 24 mm
diameter of the microbial inhibition halo ([4]; 100 ppm): 30 mm
diameter of the microbial inhibition halo ([5]; 30 ppm): 0 mm
diameter of the microbial inhibition halo ([5]; 60 ppm): 0 mm
diameter of the microbial inhibition halo ([5]; 125 ppm): 11 mm
diameter of the microbial inhibition halo ([5]; 250 ppm): 15 mm
diameter of the microbial inhibition halo ([5]; 500 ppm): 18 mm
diameter of the microbial inhibition halo ([5]; 1000 ppm): 20 mm
MICROBE COUNTS FUNGI CFU/m^3 (FUNGI; Entry room after treatment): 707 CFU/m^3
MICROBE COUNTS FUNGI CFU/dish (FUNGI; Entry room after treatment): 51 CFU/dish
% REDUCTION OF ENVIRONMENTAL MICROBIOTA Fungal population (FUNGI; Entry room): 70%
MICROBE COUNTS FUNGI CFU/m^3 (FUNGI; [13]): 273 CFU/m^3
MICROBE COUNTS FUNGI CFU/dish (FUNGI; [13]): 21 CFU/dish
% REDUCTION OF ENVIRONMENTAL MICROBIOTA Fungal population (FUNGI; Zone 1 of the ripening room): 23%
MICROBE COUNTS FUNGI CFU/m^3 (FUNGI; [14]): 328 CFU/m^3
MICROBE COUNTS FUNGI CFU/dish (FUNGI; [14]): 25 CFU/dish
% REDUCTION OF ENVIRONMENTAL MICROBIOTA Fungal population (FUNGI; Zone 2 of the ripening room): 36%
diameter of the microbial inhibition halo ([6]; 30 ppm): 12 mm
diameter of the microbial inhibition halo ([6]; 60 ppm): 15 mm
diameter of the microbial inhibition halo ([6]; 125 ppm): 20 mm
diameter of the microbial inhibition halo ([6]; 250 ppm): 33 mm
diameter of the microbial inhibition halo ([6]; 500 ppm): 33 mm
diameter of the microbial inhibition halo ([6]; 1000 ppm): 35 mm
% Reduction (Geotrichum candidum; 1600 ppm, 7 days at 20° C.): 95%
% of fruit affected (Geotrichum candidum; 1600 ppm, 7 days at 20° C.): 5%
% Reduction (Geotrichum candidum; 1600 ppm, 14 days at 20° C.): 37%
% of fruit affected (Geotrichum candidum; 1600 ppm, 14 days at 20° C.): 63%
% Reduction (Geotrichum candidum; 2500 ppm, 7 days at 20° C.): 100%
% of fruit affected (Geotrichum candidum; 2500 ppm, 7 days at 20° C.): 0%
% Reduction (Geotrichum candidum; 2500 ppm, 14 days at 20° C.): 37%
% of fruit affected (Geotrichum candidum; 2500 ppm, 14 days at 20° C.): 63%
% Reduction [7, 15]: 60%
% of fruit affected [7, 15]: 18%
% Reduction [7, 16]: 7%
% of fruit affected [7, 16]: 93%
% Reduction [7, 17]: 70%
% of fruit affected [7, 17]: 8%
% Reduction [7, 18]: 20%
% of fruit affected [7, 18]: 80%
diameter of the microbial inhibition halo ([8]; 25 ppm): 0 mm
diameter of the microbial inhibition halo ([8]; 50 ppm): 14 mm
diameter of the microbial inhibition halo ([8]; 100 ppm): 17 mm
diameter of the microbial inhibition halo ([9]; 30 ppm): 10 mm
diameter of the microbial inhibition halo ([9]; 60 ppm): 21 mm
diameter of the microbial inhibition halo ([9]; 125 ppm): 23 mm
diameter of the microbial inhibition halo ([9]; 250 ppm): 42 mm
diameter of the microbial inhibition halo ([9]; 500 ppm): 53 mm
diameter of the microbial inhibition halo ([9]; 1000 ppm): 55 mm
diameter of the microbial inhibition halo ([10]; 25 ppm): 22 mm
diameter of the microbial inhibition halo ([10]; 50 ppm): 26 mm
diameter of the microbial inhibition halo ([10]; 100 ppm): 34 mm
diameter of the microbial inhibition halo ([11]; 25 ppm): 28 mm
diameter of the microbial inhibition halo ([11]; 50 ppm): 32 mm
diameter of the microbial inhibition halo ([11]; 100 ppm): 44 mm
diameter of the microbial inhibition halo ([12]; 30 ppm): 0 mm
diameter of the microbial inhibition halo ([12]; 60 ppm): 0 mm
diameter of the microbial inhibition halo ([12]; 125 ppm): 10 mm
diameter of the microbial inhibition halo ([12]; 250 ppm): 13 mm
diameter of the microbial inhibition halo ([12]; 500 ppm): 15 mm
diameter of the microbial inhibition halo ([12]; 1000 ppm): 17 mm
